Laboratory results published in patent US9511058B2, “Methods for using carboxamide, sulfonamide and amine compounds” (Rigel Pharmaceuticals, Inc., priority 2010, dated 2016).

Target: AMPK
Test: AMPK activation, enzyme-linked immunosorbent assay
Type: biochemical
Settings: compounds of Table 1 (Table 6)
Protocol: Compounds of Table 1 were assayed for their ability to activate AMPK using an enzyme-linked immunosorbent assay.
Compounds of Table 2 were assayed for their ability to activate AMPK using an enzyme-linked immunosorbent assay.
Compounds of Table 3 were assayed for their ability to activate AMPK using an enzyme-linked immunosorbent assay.
Compounds of Table 4 were assayed for their ability to activate AMPK using an enzyme-linked immunosorbent assay.
Compounds of Table 5 were assayed for their ability to activate AMPK using an enzyme-linked immunosorbent assay.

| Structure (SMILES) | EC50 [nM] |
| --- | --- |
| O=C(NCCCNCc1ccncc1)c1ccc(OC2CCN(c3ccc(C(F)(F)F)cc3)CC2)cn1 [1-50, N-(3-(pyridin-4-ylmethylamino)propyl)-5-(1-(4-(trifluoromethyl)phenyl)piperidin-4-yloxy)picolinamide] | 1000 to 5000 |
| N#Cc1ccc(CN2CCC(Oc3ccc(S(=O)(=O)NC4CCN(Cc5ccncc5)CC4)cn3)CC2)cc1 [1-53, 6-(1-(4-cyanobenzyl)piperidin-4-yloxy)-N-(1-(pyridin-4-ylmethyl)piperidin-4-yl)pyridine-3-sulfonamide] | 100 to 500 |
| CC(C)(C)OC(=O)N1CCC(NS(=O)(=O)c2ccc(OC3CCN(c4ccc(C(F)(F)F)cc4)CC3)nc2)CC1 [1-54, tert-butyl 4-(6-(1-(4-(trifluoromethyl)phenyl)piperidin-4-yloxy)pyridine-3-sulfonamido)piperidine-1-carboxylate] | 1000 to 5000 |
| O=S(=O)(NC1CCNCC1)c1ccc(OC2CCN(c3ccc(C(F)(F)F)cc3)CC2)nc1 [1-55, N-(piperidin-4-yl)-6-(1-(4-(trifluoromethyl)phenyl)piperidin-4-yloxy)pyridine-3-sulfonamide] | 1000 to 5000 |
| N#Cc1ccc(CN2CCC(NS(=O)(=O)c3ccc(OC4CCN(c5ccc(C(F)(F)F)cc5)CC4)nc3)CC2)cc1 [1-56, N-(1-(4-cyanobenzyl)piperidin-4-yl)-6-(1-(4-(trifluoromethyl)phenyl)piperidin-4-yloxy)pyridine-3-sulfonamide] | 5000 to 10000 |
| N#Cc1cccc(CN2CCC(NS(=O)(=O)c3ccc(OC4CCN(c5ccc(C(F)(F)F)cc5)CC4)nc3)CC2)c1 [1-57, N-(1-(3-cyanobenzyl)piperidin-4-yl)-6-(1-(4-(trifluoromethyl)phenyl)piperidin-4-yloxy)pyridine-3-sulfonamide] | 500 to 1000 |
| O=S(=O)(NC1CCN(Cc2ccc(C(F)(F)F)cc2)CC1)c1ccc(OC2CCN(c3ccc(C(F)(F)F)cc3)CC2)nc1 [1-58, N-(1-(4-(trifluoromethyl)benzyl)piperidin-4-yl)-6-(1-(4-(trifluoromethyl)phenyl)piperidin-4-yloxy)pyridine-3-sulfonamide] | < 100 |
| O=S(=O)(NC1CCN(Cc2cccc(C(F)(F)F)c2)CC1)c1ccc(OC2CCN(c3ccc(C(F)(F)F)cc3)CC2)nc1 [1-59, N-(1-(3-(trifluoromethyl)benzyl)piperidin-4-yl)-6-(1-(4-(trifluoromethyl)phenyl)piperidin-4-yloxy)pyridine-3-sulfonamide] | 100 to 500 |
| O=C(c1ccc(F)cc1)N1CCC(NS(=O)(=O)c2ccc(OC3CCN(c4ccc(C(F)(F)F)cc4)CC3)nc2)CC1 [1-60, N-(1-(4-fluorobenzoyl)piperidin-4-yl)-6-(1-(4-(trifluoromethyl)phenyl)piperidin-4-yloxy)pyridine-3-sulfonamide] | > 10000 |
| Cc1c(C(=O)NC2CCN(C(=O)OC(C)(C)C)CC2)oc2cc(OC3CCN(c4ccc(C(F)(F)F)cc4)CC3)ccc12 [1-61, tert-butyl 4-(3-methyl-6-(1-(4-(trifluoromethyl)phenyl)piperidin-4-yloxy)benzofuran-2-carboxamido)piperidine-1-carboxylate] | 100 to 500 |
| Cc1c(C(=O)NC2CCNCC2)oc2cc(OC3CCN(c4ccc(C(F)(F)F)cc4)CC3)ccc12 [1-62, 3-methyl-N-(piperidin-4-yl)-6-(1-(4-(trifluoromethyl)phenyl)piperidin-4-yloxy)benzofuran-2-carboxamide] | 5000 to 10000 |
| Cc1c(C(=O)NC2CCN(Cc3ccc(C#N)cc3)CC2)oc2cc(OC3CCN(c4ccc(C(F)(F)F)cc4)CC3)ccc12 [1-64, N-(1-(4-cyanobenzyl)piperidin-4-yl)-3-methyl-6-(1-(4-(trifluoromethyl)phenyl)piperidin-4-yloxy)benzofuran-2-carboxamide] | < 100 |
| Cc1c(C(=O)NC2CCN(Cc3ccncc3)CC2)oc2cc(OC3CCN(c4ccc(C(F)(F)F)cc4)CC3)ccc12 [1-65, 3-methyl-N-(1-(pyridin-4-ylmethyl)piperidin-4-yl)-6-(1-(4-(trifluoromethyl)phenyl)piperidin-4-yloxy)benzofuran-2-carboxamide] | < 100 |
| Cc1c(C(=O)NC2CCN(Cc3ccccn3)CC2)oc2cc(OC3CCN(c4ccc(C(F)(F)F)cc4)CC3)ccc12 [1-68, 3-methyl-N-(1-(pyridin-2-ylmethyl)piperidin-4-yl)-6-(1-(4-(trifluoromethyl)phenyl)piperidin-4-yloxy)benzofuran-2-carboxamide] | < 100 |
| N#Cc1ccc(N2CCC(Oc3ccc4oc(C(=O)NC5CCN(Cc6ccccc6)CC5)cc4c3)CC2)cc1 [1-71, N-(1-benzylpiperidin-4-yl)-5-(1-(4-cyanophenyl)piperidin-4-yloxy)benzofuran-2-carboxamide] | < 100 |
| O=C(NC1CCN(Cc2ccccc2)CC1)c1cc2cc(OC3CCN(Cc4cccc(C(F)(F)F)c4)CC3)ccc2o1 [1-73, N-(1-benzylpiperidin-4-yl)-5-(1-(3-(trifluoromethyl)benzyl)piperidin-4-yloxy)benzofuran-2-carboxamide] | 500 to 1000 |
| O=C(NC1CCN(Cc2ccccc2)CC1)c1cc2cc(OC3CCN(c4ccc(C(F)(F)F)cc4)CC3)ccc2o1 [1-75, N-(1-benzylpiperidin-4-yl)-5-(1-(4-(trifluoromethyl)phenyl)piperidin-4-yloxy)benzofuran-2-carboxamide] | < 100 |
| O=C(NC1CCN(Cc2ccncc2)CC1)c1cc2cc(OC3CCN(c4ccc(C(F)(F)F)cc4)CC3)ccc2o1 [1-76, N-(1-(pyridin-4-ylmethyl)piperidin-4-yl)-5-(1-(4-(trifluoromethyl)phenyl)piperidin-4-yloxy)benzofuran-2-carboxamide] | 100 to 500 |
| O=C(NC1CCN(Cc2ccncc2)CC1)c1cc2cc(OC3CCN(Cc4ccc(Cl)cc4)CC3)ccc2o1 [1-77, 5-(1-(4-chlorobenzyl)piperidin-4-yloxy)-N-(1-(pyridin-4-ylmethyl)piperidin-4-yl)benzofuran-2-carboxamide] | 100 to 500 |
| N#Cc1ccc(CN2CCC(Oc3ccc4oc(C(=O)NC5CCN(Cc6ccncc6)CC5)cc4c3)CC2)cc1 [1-79, 5-(1-(4-cyanobenzyl)piperidin-4-yloxy)-N-(1-(pyridin-4-ylmethyl)piperidin-4-yl)benzofuran-2-carboxamide] | 100 to 500 |
| O=C(NC1CCN(Cc2ccccc2)CC1)c1cc2cc(OC3CCN(c4ccc(OC(F)(F)F)cc4)CC3)ccc2o1 [1-80, N-(1-benzylpiperidin-4-yl)-5-(1-(4-(trifluoromethoxy)phenyl)piperidin-4-yloxy)benzofuran-2-carboxamide] | < 100 |
| CC(C)(C)OC(=O)N1CCC(NC(=O)c2cc3ccc(OC4CCN(c5ccc(OC(F)(F)F)cc5)CC4)cc3o2)CC1 [1-81, tert-butyl 4-(6-(1-(4-(trifluoromethoxy)phenyl)piperidin-4-yloxy)benzofuran-2-carboxamido)piperidine-1-carboxylate] | 100 to 500 |

Continued, values first:

| EC50 [nM] | Structure (SMILES) |
| --- | --- |
| 100 to 500 | O=S(=O)(NC1CCN(Cc2ccncc2)CC1)c1ccc(OC2CCN(c3ccc(C(F)(F)F)cc3)CC2)nc1 [1-51, N-(1-(pyridin-4-ylmethyl)piperidin-4-yl)-6-(1-(4-(trifluoromethyl)phenyl)piperidin-4-yloxy)pyridine-3-sulfonamide] |
| 100 to 500 | N#Cc1ccc(N2CCC(Oc3ccc(S(=O)(=O)NC4CCN(Cc5ccncc5)CC4)cn3)CC2)cc1 [1-52, N-(1-(pyridin-4-ylmethyl)piperidin-4-yl)-6-(1-(4-cyanophenyl)piperidin-4-yloxy)pyridine-3-sulfonamide] |
| < 100 | Cc1c(C(=O)NC2CCN(Cc3ccc(F)cc3)CC2)oc2cc(OC3CCN(c4ccc(C(F)(F)F)cc4)CC3)ccc12 [1-63, N-(1-(4-fluorobenzyl)piperidin-4-yl)-3-methyl-6-(1-(4-(trifluoromethyl)phenyl)piperidin-4-yloxy)benzofuran-2-carboxamide] |
| < 100 | Cc1c(C(=O)NC2CCN(Cc3cccc(C#N)c3)CC2)oc2cc(OC3CCN(c4ccc(C(F)(F)F)cc4)CC3)ccc12 [1-66, N-(1-(3-cyanobenzyl)piperidin-4-yl)-3-methyl-6-(1-(4-(trifluoromethyl)phenyl)piperidin-4-yloxy)benzofuran-2-carboxamide] |
| < 100 | Cc1c(C(=O)NC2CCN(Cc3ccccc3C#N)CC2)oc2cc(OC3CCN(c4ccc(C(F)(F)F)cc4)CC3)ccc12 [1-67, N-(1-(2-cyanobenzyl)piperidin-4-yl)-3-methyl-6-(1-(4-(trifluoromethyl)phenyl)piperidin-4-yloxy)benzofuran-2-carboxamide] |
| < 100 | Cc1c(C(=O)NC2CCN(Cc3cccnc3)CC2)oc2cc(OC3CCN(c4ccc(C(F)(F)F)cc4)CC3)ccc12 [1-69, 3-methyl-N-(1-(pyridin-3-ylmethyl)piperidin-4-yl)-6-(1-(4-(trifluoromethyl)phenyl)piperidin-4-yloxy)benzofuran-2-carboxamide] |
| < 100 | N#Cc1ccc(CN2CCC(Oc3ccc4oc(C(=O)NC5CCN(Cc6ccccc6)CC5)cc4c3)CC2)cc1 [1-70, N-(1-benzylpiperidin-4-yl)-5-(1-(4-cyanobenzyl)piperidin-4-yloxy)benzofuran-2-carboxamide] |
| 100 to 500 | O=C(NC1CCN(Cc2ccccc2)CC1)c1cc2cc(OC3CCN(Cc4ccc(Cl)cc4)CC3)ccc2o1 [1-72, N-(1-benzylpiperidin-4-yl)-5-(1-(4-chlorobenzyl)piperidin-4-yloxy)benzofuran-2-carboxamide] |
| 100 to 500 | O=C(NC1CCN(Cc2ccccc2)CC1)c1cc2cc(OC3CCN(Cc4ccc(F)c(F)c4)CC3)ccc2o1 [1-74, N-(1-benzylpiperidin-4-yl)-5-(1-(3,4-difluorobenzyl)piperidin-4-yloxy)benzofuran-2-carboxamide] |
| < 100 | O=C(NC1CCN(Cc2ccncc2)CC1)c1cc2cc(OC3CCN(c4ccc(OC(F)(F)F)cc4)CC3)ccc2o1 [1-78, N-(1-(pyridin-4-ylmethyl)piperidin-4-yl)-5-(1-(4-(trifluoromethoxy)phenyl)piperidin-4-yloxy)benzofuran-2-carboxamide] |
